Data from ChEMBL document CHEMBL1201862, “PubChem BioAssay data set” (2004).
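Following 48 hours of exposure in 96-well plates, responses at five concentrations were used to interpolate endpoints linearly. GI50: concentration for 50% inhibition of growth.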 Activity calls are given as the source filed them. Cut-off read from the data, not from the text of the source: active = GI50 up to about 1.1 µM and inactive = higher.

Assays:
Assay in all cases: NCI-60 cell line screen, 48 h
BT-549 = system: BT-549
CAKI-1 = system: CAKI-1
DMS-273 = system: DMS-273
HCT-116 = system: HCT-116
HCT-15 = system: HCT-15
HOP-62 = system: HOP-62
HOP-92 = system: HOP-92
HT-29 = system: HT-29
KM12 = system: KM12
MCF7 = system: MCF7
NCI-H460 = system: NCI-H460
NCI-H522 = system: NCI-H522
OVCAR-3 = system: OVCAR-3
PC-3 = system: PC-3
RPMI-8226 = system: RPMI-8226
SF-539 = system: SF-539
SK-MEL-2 = system: SK-MEL-2
T47D = system: T47D
TK-10 = system: TK-10
UACC-62 = system: UACC-62

| Structure (SMILES) | GI50 (BT-549) | GI50 (CAKI-1) | GI50 (DMS-273) | GI50 (HCT-116) | GI50 (HCT-15) | GI50 (HOP-62) | GI50 (HOP-92) | GI50 (HT-29) | GI50 (KM12) | GI50 (MCF7) | GI50 (NCI-H460) | GI50 (NCI-H522) | GI50 (OVCAR-3) | GI50 (PC-3) | GI50 (RPMI-8226) | GI50 (SF-539) | GI50 (SK-MEL-2) | GI50 (T47D) | GI50 (TK-10) | GI50 (UACC-62) |
| --- | --- | --- | --- | --- | --- | --- | --- | --- | --- | --- | --- | --- | --- | --- | --- | --- | --- | --- | --- | --- |
| S=c1[nH]nc(Cc2ccccc2)c(=S)[nH]1 | 35.2 µM (inactive) | > 54.8 µM (inactive) | > 100 µM (inactive) | > 61 µM (inactive) | > 62.1 µM | > 75 µM (inactive) | 23.3 µM (inactive) | > 51.8 µM (inactive) | > 79.8 µM (inactive) | 55.8 µM (inactive) | > 52.5 µM (inactive) | > 51.1 µM (inactive) | > 61.7 µM (inactive) | 24.9 µM (inactive) | 50.8 µM (inactive) | > 76.4 µM (inactive) | > 43.1 µM (inactive) | 21.6 µM (inactive) | > 56 µM (inactive) | > 25.9 µM (inactive) |
| COC1(OC)C2(Cl)C(Cl)=C(Cl)C1(Cl)C1c3ccc(C(C)=O)c4cccc(c34)C12 (stereo not given) | 47.6 µM (inactive) | > 37.4 µM (inactive) | 3.89 µM (inactive) | 6.47 µM (inactive) | 6.24 µM | 63.4 µM (inactive) | 2.89 µM (inactive) | 5.24 µM (inactive) | 11.7 µM (inactive) | 5.5 µM (inactive) | 14.5 µM (inactive) | 13.3 µM (inactive) | 26.3 µM (inactive) | 14.2 µM (inactive) | 5.82 µM (inactive) | 64 µM (inactive) | 17.3 µM (inactive) | 20.8 µM (inactive) | 71 µM (inactive) | 23.5 µM (inactive) |
| CCNCCCCNCCCCNCCCCNCCCCNCC | > 100 µM (inactive) | 10.4 µM (inactive) | > 49.7 µM (inactive) | 11.4 µM (inactive) | > 100 µM | 26.4 µM (inactive) | 30.8 µM (inactive) | 18.6 µM (inactive) | 76.6 µM (inactive) | > 100 µM (inactive) | 32 µM (inactive) | > 100 µM (inactive) | > 100 µM (inactive) | > 100 µM (inactive) | 53 µM (inactive) | 70.1 µM (inactive) | 48.1 µM (inactive) | 6.17 µM (inactive) | 29.7 µM (inactive) | 14.4 µM (inactive) |
| CCC/C(=N\NC(=S)N1CC2CCC(CC2)C1)c1ccccn1 | 0.3 µM (active) | 1.21 µM (inactive) | 0.00839 µM (active) | 0.0359 µM (active) | 0.0853 µM | 0.713 µM (active) | 0.019 µM (active) | 0.0432 µM (active) | 0.144 µM (active) | 0.042 µM (active) | 0.22 µM (active) | 0.282 µM (active) | 0.254 µM (active) | 0.0906 µM (active) | 0.00822 µM (active) | 0.594 µM (active) | 0.0813 µM (active) | 0.00425 µM (active) | 0.977 µM (active) | 0.0479 µM (active) |
| CCN(CC)CC(O)CNc1ccc(NCC(O)CCl)c2c1C(=O)c1ccccc1C2=O (stereo not given) | 2.22 µM (inactive) | 8.67 µM (inactive) | 3.33 µM (inactive) | 1.67 µM (inactive) | 6.1 µM | 10.9 µM (inactive) | 5.58 µM (inactive) | 3.31 µM (inactive) | 4.15 µM (inactive) | 1.56 µM (inactive) | 2.78 µM (inactive) | 4.47 µM (inactive) | 6.78 µM (inactive) | 6.47 µM (inactive) | 4.92 µM (inactive) | 6.27 µM (inactive) | 12.2 µM (inactive) | 21.1 µM (inactive) | 12.1 µM (inactive) | 14.4 µM (inactive) |
